# Data published in patent publication US9290453B2 (Merck Sharp & Dohme Corp., priority 2010, dated 2016).
# Target: T1, hCRTH2 (Homo sapiens, UniProt Q9Y5Y4)
# T1 construct: expressed in transfected cells; host or cells: HEK (human embryonic kidney) cells expressing hCRTH2
# T1 sequence (Q9Y5Y4 1-395): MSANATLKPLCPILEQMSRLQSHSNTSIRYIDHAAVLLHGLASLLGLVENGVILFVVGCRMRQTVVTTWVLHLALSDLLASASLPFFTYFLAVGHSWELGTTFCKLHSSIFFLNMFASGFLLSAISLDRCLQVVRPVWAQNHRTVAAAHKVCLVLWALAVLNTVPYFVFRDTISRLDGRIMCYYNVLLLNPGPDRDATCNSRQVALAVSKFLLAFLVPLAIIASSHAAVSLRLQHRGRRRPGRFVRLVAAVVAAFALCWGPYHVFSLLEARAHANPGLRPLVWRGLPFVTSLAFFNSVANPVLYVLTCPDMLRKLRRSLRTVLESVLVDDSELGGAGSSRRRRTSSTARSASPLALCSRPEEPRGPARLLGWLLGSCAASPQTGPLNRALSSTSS
# Test: Radioligand Binding Assay B (scintillation proximity assay, [3H]-PGD2, HEK-hCRTH2 membranes)
# Conditions: Radioligand Binding Assay B (SPA), values in text
# Description: Radioligand binding also was performed using scintillation proximity assay (SPA) technology in a similar way as described above in Radioligand Binding Assay A with minor modification. Assays were done at room temperature in 10 mM HEPES pH 7.4, 1 mM EDTA containing 2 mM MnCl2 and 16 nM [^3H]-PGD2 (PerkinElmer, Waltham, Mass.) (164 Ci mmol^−1), in a final volume of 0.05 mL. Competing ligands were diluted in dimethylsulfoxide (Me2SO) and added using very low volumes (50 nL). The reaction was initiated by the addition of a mixture of 3.52 μg of membrane protein prepared from a human embryonic kidney (HEK)-hCRTH2 cell line adhered to 140 ug of wheatgerm agglutinin SPA beads (PerkinElmer). Total and non-specific binding were determined in the absence and the presence of 10 μM of a CRTH2 antagonist, respectively. The reaction was routinely conducted for 60 min at room temperature followed by centrifugation for 5 minutes at 1000 RPM. The radioactivity was measured with a TopCountNXT (PerkinElmer). Results determined using the SPA-based assay were similar to those from the filtration binding assay.
row,Structure (SMILES),Ki
1,"O=C(O)CCCCc1cc2cc(C(=O)N[C@H]3CCOc4ccccc43)ccc2nc1-c1ccccc1 [Compound 1AL, (S)-5-(6-(chroman-4-ylcarbamoyl)-2-phenylquinolin-3-yl)pentanoic acid]",22.3 nM

# Same assay, conditions: Table B, Radioligand Binding Assay B (SPA), rated A-D
row,Structure (SMILES),Ki
1,"O=C(O)CCCCc1cc2cc(C(=O)N[C@H]3CCOc4ccccc43)ccc2nc1-c1ccccc1 [Compound 1AL, (S)-5-(6-(chroman-4-ylcarbamoyl)-2-phenylquinolin-3-yl)pentanoic acid]",20.1 to 200 nM
2,"CC1(C)CCC(NC(=O)c2ccc3nc(-c4ccccc4)c(CCCCC(=O)O)cc3c2)c2ccccc21 (stereo not drawn) [Compound 1AQ, 5-(6-((4,4-dimethyl-1,2,3,4-tetrahydronaphthalen-1-yl)carbamoyl)-2-phenylquinolin-3-yl)pentanoic acid]",2.1 to 20 nM
3,"Cc1cccc(N2CCN(C(=O)c3ccc4nc(-c5ccccc5)c(CCCCC(=O)O)cc4c3)CC2)c1 [Compound 1BC, 5-(2-phenyl-6-(4-(m-tolyl)piperazine-1-carbonyl)quinolin-3-yl)pentanoic acid]",2.1 to 20 nM
4,"O=C(O)CCCCc1cc2cc(C(=O)N[C@@H]3CCCc4cc(F)ccc43)ccc2nc1-c1ccc(F)cc1 [Compound 5AE, (R)-5-(6-((6-fluoro-1,2,3,4-tetrahydronaphthalen-1-yl)carbamoyl)-2-(4-fluorophenyl)quinolin-3-yl)pentanoic acid]",2.1 to 20 nM
5,"O=C(O)CCCCc1cc2cc(C(=O)N3CC(c4cccc(F)c4)C3)ccc2nc1-c1ccccc1 [Compound 1AJ, 5-(6-(3-(3-fluorophenyl)azetidine-1-carbonyl)-2-phenylquinolin-3-yl)pentanoic acid]",2.1 to 20 nM
